The values that follow are results of earlier work, collected in patent US20080188510A1, “NOVEL METHODS USING ZONISAMIDE” (Eisai R & D Management Co., Ltd., priority 2005, published 2008).

This series concerns dopaminergic neurodegeneration induced by MPTP. The note with it: MPTP (1-methyl-4-phenyl-1,2,3,6-tetrahydropyridine) induced; cited from earlier work.

`NS(=O)(=O)Cc1noc2ccccc12` [zonisamide, 3-sulfamoylmethyl-1,2-benzisoxazole]: the “suppressant action to dopaminergic neurodegeneration induced by MPTP” value is recorded as “extremely strong suppressant action”.
